Data taken from patent US5147876A, “2,6-di,2,4,6-, 2,5,6-tri and 2,4,5,6-tetra-substituted pyrimidines, their pharmaceutically acceptable salts, pharmaceutical compositions containing same and their use in the treatment of neurological diseases” (Mitsui Petrochemical Industries, Ltd., priority 1988, dated 1992).

Tests used:
[1] = test system: neuro-2a (mouse neuroblastoma cells); assay: Action on neuro-2a: proportion of cells containing outgrown neurites; assay type: cell-based; conditions: mean ± S.D.
Protocol: (§1) The effects of the compounds of this invention on neuroblastoma cells were examined by the following method.
(§2) Mouse neuro 2a cells in the logarithmic growth period in the Dulbecco's modified Eagle's medium DMEM, containing 100 units/ml of penicillin G sodium and 100 micrograms/ml of streptomycin sulfate]containing 10 % of FCS were seeded in a 48-well plate so that the number of cells was 1,000 cells/well, and cultured for one day in 0.25 ml of the culture fluid in each well in an incubator containing 5 % of carbon dioxide gas in air at 37° C. Then, a 4 % aqueous glutaraldehyde solution in the same amount as a medium (0.25 ml) was added, and the culture fluid was left to stand at room temperature for 2 hours to fix the cells. After washing with water, a 0.05 % aqueous solution of methylene blue was added to stain the cells Under a microscope, the number of cells containing outgrown neurites (cells having at least one neurite with a length of at least two times as large as the long diameter of the cell) was counted visually, and the proportion of these cells in the entire cells was calculated. The well was observed over 5 or more visual fields (at least 2 % of the entire surface area of the well) continuous to the left and right from a mark put at the center of the well, and more than 200 cells was counted. One drug compound was used in 6 different concentrations at most, and three runs were conducted for each concentrations.

Acute toxicity on mice = assay type: in vivo; conditions: mouse, in vivo, ip, 24 hours after administration; read-out: Estimated LD50
Protocol: The acute toxicity of the compounds of the invention was examined by the following method.
Male ddy-strain 5-week old mice, 4-6- per group, were used as experimental animals. Each of the compounds was intraperitoneally (i.p.), and the toxicity of the compound was assessed 24 hours after the administration.

[2] = test system: NS-20Y (mouse neuroblastoma cells); assay: Activity on NS-20Y cells: appearance of neurites; assay type: cell-based; conditions: 0.02 mM
Protocol: as §1, §2
Mouse neuroblastoma cells NS-20Y were similarly cultured in a dish coated with polyornithine, and the effects of the compounds were examined.

Compound	Number of cells having neurites with a length at least two times the diameter of each cell/total number of cells ([1]; 0.03 mM)	Number of cells having neurites with a length at least two times the diameter of each cell/total number of cells ([1]; 0.1 mM)	LD50 at 24 h (Acute toxicity on mice)	Number of cells having neurites with a length at least two times the diameter of each cell/total number of cells ([1]; 0.3 mM)	Number of cells having neurites with a length at least two times the diameter of each cell/total number of cells ([1]; 1 mM)	Number of cells having neurites with a length at least two times the diameter of each cell/total number of cells ([1]; 0.01 mM)	Number of cells in which neurites appeared/total number of cells ([2]; 24 hours)	Number of cells in which neurites appeared/total number of cells ([2]; 48 hours)
CN(C(=O)N1CCCCC1)c1ccnc(N2CCC(c3ccccc3)CC2)n1 [Compound 2210]	9.5 ± 2.0%	9.5 ± 1.9%	500 to 1000 mg/kg	–	–	–	–	–
CN(C)c1nccc(N(C)C(=O)c2ccccc2)n1 [Compound 104]	2.5 ± 0.8%	4.1 ± 1.5%	500 to 1000 mg/kg	7.7 ± 3.8%	3.6 ± 1.4%	–	–	–
CNc1nc(C)cc(N2CCC(c3ccccc3)CC2)n1 [Compound 1158]	9.9 ± 1.4%	18.4 ± 3.0%	< 250 mg/kg	22.1 ± 6.7%	19.1 ± 2.7%	–	–	–
CCOC(=O)N(C)c1ccnc(N2CCC(c3ccccc3)CC2)n1 [Compound 2242]	3.3 ± 0.9%	24.8 ± 2.9%	500 to 1000 mg/kg	–	–	–	–	–
CN(C(=O)Cc1ccccc1)c1ccnc(N2CCC(c3ccccc3)CC2)n1 [Compound 2250]	–	10.9 ± 3.9%	500 to 1000 mg/kg	19.2 ± 1.0%	–	–	–	–
CN1CCN(c2nccc(N(C)C(=O)c3ccccc3)n2)CC1 [Compound 352]	–	3.2 ± 1.9%	500 to 1000 mg/kg	9.9 ± 1.6%	–	–	–	–
CN(C(=O)c1ccccc1)c1ccnc(N2CCCC3CCCCC32)n1 (stereo not drawn) [Compound 2156]	8.6 ± 1.0%	19.6 ± 5.3%	> 1000 mg/kg	–	–	–	–	–
CC1CC(C)CN(c2nccc(N(C)C(=O)c3ccccc3)n2)C1 (stereo not drawn) [Compound 2004]	6.6 ± 2.2%	30.2 ± 6.4%	> 1000 mg/kg	–	–	–	–	–
CN(C(=O)c1ccccc1)c1ccnc(N2CCC(CO)CC2)n1 [Compound 2164]	–	4.6 ± 1.1%	> 1000 mg/kg	–	11.7 ± 0.7%	–	–	–
CN(C(=O)c1ccccc1)c1ccnc(N2CCC(OS(=O)(=O)c3ccccc3)CC2)n1 [Compound 2350]	–	–	500 to 1000 mg/kg	5.9 ± 1.5%	8.3 ± 2.0%	–	–	–
CCCC1CCN(c2nccc(N(C)C(=O)c3ccccc3)n2)CC1 [Compound 146]	8.7 ± 2.0%	40.0 ± 6.1%	> 1000 mg/kg	–	–	–	–	–
CN(C(=O)c1ccccc1)c1ccnc(N2CCC(C)(C)CC2)n1 [Compound 2116]	–	34.2 ± 3.8%	500 to 1000 mg/kg	8.2 ± 3.6%	–	–	–	–
CC(C)C1CCN(c2nccc(N(C)C(=O)c3ccccc3)n2)CC1 [Compound 147-1]	6.6 ± 0.4%	30.5 ± 6.1%	> 1000 mg/kg	–	–	–	–	–
CN(C(=O)c1ccccc1)c1ccnc(NC2CN3CCC2CC3)n1 (stereo not drawn) [Compound 2342]	5.9 ± 2.1%	11.4 ± 1.4%	500 to 1000 mg/kg	–	–	–	–	–
CCN(CC)C(=O)N(C)c1ccnc(N2CCC(c3ccccc3)CC2)n1 [Compound 2302]	8.0 ± 2.7%	8.2 ± 4.7%	500 to 1000 mg/kg	–	–	–	–	–
CN(C(=O)c1cccnc1)c1ccnc(N2CCC(c3ccccc3)CC2)n1 [Compound 2140]	5.4 ± 3.9%	17.0 ± 1.2%	> 1000 mg/kg	–	–	–	–	–
CN1C(=O)Cc2cnc(N3CCN(C(c4ccc(F)cc4)c4ccc(F)cc4)CC3)nc21 [Compound 3184]	3.7 ± 1.1%	13.9 ± 2.3%	500 to 1000 mg/kg	18.4 ± 1.9%	17.0 ± 2.1%	–	–	–
CCOc1ccc(C(=O)N(C)c2ccnc(N3CCC(c4ccccc4)CC3)n2)cc1 [Compound 171-5]	–	28.4 ± 2.2%	> 1000 mg/kg	32.7 ± 0.6%	14.0 ± 4.1%	7.2 ± 1.1%	–	–
CN(C(=O)Oc1ccccc1)c1ccnc(N2CCC(c3ccccc3)CC2)n1 [Compound 2334]	13.2 ± 0.2%	16.7 ± 0.8%	> 1000 mg/kg	–	–	–	–	–
CN1C(=O)Cc2cnc(N3CCN(C(c4ccc(Cl)cc4)c4ccc(Cl)cc4)CC3)nc21 [Compound 3176]	7.3 ± 3.3%	23.1 ± 4.8%	500 to 1000 mg/kg	21.2 ± 4.9%	14.6 ± 5.0%	–	–	–
CCCN(C(=O)c1ccccc1)c1nccc(N2CCC(c3ccccc3)CC2)n1 [Compound 644]	26.1 ± 7.3%	14.7 ± 7.3%	> 1000 mg/kg	–	–	–	–	–
CN(C)CCN(C(=O)c1ccccc1)c1ccnc(N2CCC(c3ccccc3)CC2)n1 [Compound 200]	7.6 ± 1.6%	–	–	–	–	4.2 ± 1.6%	4/50	2/50
CN(C(=O)C(C)(C)C)c1ccnc(N2CCC(c3ccccc3)CC2)n1 [Compound 224]	4.6 ± 1.7%	5.5 ± 1.5%	–	–	–	–	6/50	3/50
